One molecule from patent publication US20060014197A1, “In vivo screening methods for identifying inhibitors of RNA polymerases” (priority 2004, published 2006) can be followed below.

Structures are written as SMILES.

Test [1] addresses T1, resident RNAPII (Homo sapiens, UniProt P24928).
T1 construct: endogenous in cells; host or cells: human HeLa or 293 cells
In words: Tet-ON GFP reporter assay in transfected eukaryotic cells, no amanitin-resistant RPB1 expressed. Format: cell-based. The settings on record: human HeLa or 293 cells, amanitin added, doxycycline induction, 48 hours; FIG. 7B. In general terms: In a reporter assay the amount or activity of a reporter protein is the signal.

The target of test [2] is T2, amanitin-resistant RNAPII (human RPB1 N792D) (Homo sapiens, UniProt P24928, N792D).
T2 construct: expressed in transfected cells; host or cells: human HeLa or 293 cells transfected with the RPB1 plasmid and pGFP
As to the kind of experiment: Tet-ON GFP reporter assay in transfected eukaryotic cells expressing amanitin-resistant RPB1. The class given is cell-based. Conditions: human HeLa or 293 cells with plasmid-expressed amanitin-resistant RPB1, amanitin added, doxycycline induction, 48 hours; FIG. 7B.

With `CC[C@H](C)[C@@H]1NC(=O)CNC(=O)[C@@H]2Cc3c([nH]c4cc(O)ccc34)[S+]([O-])C[C@@H](NC(=O)CNC1=O)C(=O)N[C@@H](CC(N)=O)C(=O)N1C[C@H](O)C[C@H]1C(=O)N[C@@H]([C@@H](C)[C@@H](O)CO)C(=O)N2` (stereo partly drawn) [amanitin, alpha-amanitin], the “GFP fluorescent signal (flow cytometer)” value in test [1] was “no fluorescent signal is observed”; in test [2], “results in fluorescent signal”.
